Measured values reported in patent US20060281714A1, “Combinations of a cathepsin k inhibitor and a bisphosphonate in the treatment of bone metastasis, tumor growth and tumor-induced bone loss” (priority 2003, published 2006).

System: 4T1Luc2000 mouse mammary carcinoma cells
Experiment: Osteolytic activity in the 4T1Luc2000 assay (intra-tibial injection of tumor cells)
Format: in vivo, Athymic Balb\c nude, female mice
Conditions: 50 mg/kg p.o. twice daily, in combination with Zoledronic Acid 100 ug/kg s.c. twice weekly; compared with Zoledronic Acid single treatment
Method: Intra-Tibial Injection of 4T1Luc2000 Mouse Mammary Carcinoma Cells:
Athymic Balb\c nude, female mice (Spezialzuchten, Stein, Switzerland) are anaesthetized by i.p. administration of […] ketarom: a mixture of 100 mg/kg Ketalar® 50 (Parker-Davis, Zurich, Switzerland) and 10 mg/kg xylazine (Rompun®, Bayer, Lyssach, Switzerland). Using a 30 gauze needle a cell suspension of […] in […] of HBSS (Invitrogen, Basel Switzerland) is injected through the articular cartilage and epiphysis into the tibia. In total, 48 animals in 6 groups, 8 animals each, are used in this study. […]
Peripheral Quantitative Computed Tomography (pQCT), End-Point Determination:
Total, cortical, and cancellous bone mass and geometry are monitored using an XCT-Research SA+ (Stratec-Norland, Pforzheim, Germany) fitted with a 0.5 mm collimator. […] Slices located 2, 3, 4, and 5 mm distal from the intercondylar tubercle in the proximal tibia metaphysis are analysed. […]
3D structural parameters of cancellous bone are measured non-invasively by microCT as described. […] A region of 200 slices at a position of 1 mm below the growth plate (secondary spongiosa) corresponding to the site of injection of the 4T1luc2000 cells is measured at a nominal resolution of approximately 15 μm (FIG. 3). […]
All results from the bone studies are expressed as mean *standard error (SEM). […]

## CCCN1CCC(c2ccc(C(=O)NC3(C(=O)NCC#N)CCCCC3)cc2)CC1 [N-[1-(Cyanomethyl-carbamoyl)-cyclohexyl]-4-(1-propyl-piperidin-4-yl)-benzamide]
  anti-osteolytic activity: additive anti-osteolytic activity which is superior to Zoledronic Acid single treatment
